Data set [1] has as its target T1, FERM/ErbB2 interaction (Ezrin FERM domain / juxtamembrane ErbB2 peptide) (Homo sapiens, UniProt P04626).
T1 construct: made in house
The experiment in a line: AlphaScreen competition assay, FERM/ErbB2 interaction. The class given is binding. As to conditions: 1 h. From the text:
To validate that the Zuclopenthixol hydrochloride (ZU) and its derivatives interact with the juxtamembrane domain of ErbB2, we first analyzed in AlphaScreen® their efficiency to inhibit FERM/ErbB2 interaction in a dose-dependent manner and determined IC50 value. Furthermore, to test the selectivity of those compounds, we tested their ability to disrupt the interaction between the FERM domain and the known ERM binding motif contained in the juxtamembrane region of CD44 as a control.
AlphaScreen® technology was used to assess the interaction between the Ezrin binding motif (EBM) contained in the juxtamembrane portions of ErbB2 or CD44 with the Ezrin FERM domain. For this purpose the Ezrin FERM domain in fusion with Glutathione-S-Transferase (GST) has been coupled to GSH-coated acceptor beads. […] The AlphaScreen® reagents (Glutathione-coated Acceptor beads and streptavidin-coated Donor beads) were obtained from PerkinElmer.
The reaction was performed using white 384-well Optiplates (PerkinElmer, Whalham, Mass., USA) in 20 μl (total reaction volume) in a reaction buffer containing PBS, pH 7.4, 5 mM MgCl2 and 0.02% CHAPS. […] 10 μl of a mix solution containing 20 μg/ml Glutathione-coated Acceptor beads and 20 μg/ml streptavidin-coated Donor beads was then added to the wells and incubation was further proceeded for 40 min or overnight in the dark and at room temperature. Light signal was detected with the EnVision® multilabel plate reader (PerkinElmer). All experiments involving AlphaScreen® beads were performed under subdued lighting.
A general note: Bead proximity is the source of the signal in Alpha formats.

The target in another data set is T2, V842I ErbB2 (Homo sapiens, UniProt P04626, V842I).
T2 construct: expressed in transfected cells; host or cells: HBMEC
The experiment in a line: Western blot pY1248, V842I ErbB2 in transfected HBMECs. The class given is cell-based. The conditions noted are these: 0, 5, 10 or 20 μM, 48 h. The method, then:
(§1) HBMECs cells were transfected with plasmids encoding WT, V777L or V842I and treated with 0, 5, 10 or 20 μM ZU or EB1 for 48 h. ErbB2 activation was then analyzed by western blot analysis using a phospho-ErbB2-specific antibody (pY1248) and a total ErbB2 antibody. Histograms show optical density quantification.
On the technique in general: Immunoblotting shows a protein as a band on a membrane.

Another data set deals with MCF7. The experiment in a line: MTT cell proliferation, MCF7. The class given is cell-based. The conditions noted are these: 10 μM. The protocol:
(§2) We then analyzed the ability of ZU and EB1 and their derivatives to decrease the ErbB2-dependent cell proliferation.
(§3) SKBR3, BT474, MCF-7, MDA-MB-231 and HBMEC cells were treated with the compounds as indicated, and cell proliferation was determined each day during 3 days using an MTT assay. Non treated cells were included as a negative control.

For data set [2], the system named is SKBR3. The data set can be described thus: Soft agar colony formation, SKBR3. The class given is cell-based, human. The conditions noted are these: 5 or 10 μM, 6 weeks. The method, then:
A bottom layer of 0.8% agarose in DMEM supplemented with 20% SVF and penicillin/streptomycin was added to 24 well plates before seeding 25.10^3 SKBR3 or BT474 cells/well in a 0.6% agarose top layer. Cells were left untreated or treated with 5 or 10 μM ZU or EB1 or 5 μM AG1478 (a non-specific ErbB2 kinase inhibitor) as a positive control. Treatments were renewed 3 times a week. After 6 weeks, the number of colonies and their size were quantified using image J software. The colony formation is illustrated for each condition. Data are presented as mean±SEM.

The next data set deals with ErbB2 (Homo sapiens, UniProt P04626). The experiment in a line: ErbB2 activation in N87 cells, dot blot (4G10). The class given is cell-based. Also on record: endogenous in cells; host or cells: N87. The method, then:
The phosphotyrosine content in the ErbB2-overexpressing gastric cancer cell line N87 was analyzed by dot blot using an anti-phosphotyrosine antibody (clone 4G10). As in these cells, ErbB2 is the main phosphorylated protein, decreased in total phosphotyrosine content mainly reflected inhibition of ErbB2 activity. As a control, the non-specific ErbB2 kinase inhibitor AG1478 was used. Quantifications show the result of two independent experiments.

The target in another data set is T3, V777L ErbB2 (Homo sapiens, UniProt P04626, V777L).
T3 construct: expressed in transfected cells; host or cells: HBMEC
The data set can be described thus: Western blot pY1248, V777L ErbB2 in transfected HBMECs. In kind it is cell-based. The conditions noted are these: 0, 5, 10 or 20 μM, 48 h. The method, then: as §1

For a further data set, the system named is BT474. The experiment in a line: MTT cell proliferation, BT474. In kind it is cell-based, human. The protocol: as §2, §3
(§4) A solution of ZU in cis conformation was mixed to a solution of ZU in trans conformation (1:1) to obtain ZU in a 50/50 cis/trans conformation and their respective effects on ErbB2 activation and ErbB2-dependent cell proliferation were analyzed as previously by dot blot analysis using an anti-phosphotyrosine antibody (clone 4G10) and by MTT assays in the ErbB2-overexpressing breast cancer cell line SKBR3, BT474, or HBMEC as a control.

Data set [3] relates to SKBR3. The data set can be described thus: MTT cell proliferation, SKBR3. In kind it is cell-based, human. The method, then: as §2, §3, §4
The next data set has as its system HBMEC. The experiment in a line: MTT cell proliferation, HBMEC control cells. The class given is cell-based, human. The protocol:
as §2, §3
The WT, V777L or V842I ErbB2-transfected cells were treated with 5 or 10 μM of ZU and cell proliferation was determined each day during 3 days using an MTT assay. Non transfected cells were included as a negative control.
The WT, V777L or V842I ErbB2-transfected cells were treated with 5 or 10 μM of EB1 and cell proliferation was determined each day during 3 days using an MTT assay. Non transfected cells were included as a negative control.

Each structure is given as a SMILES string.

As a reminder, the IC50 is the concentration that inhibits the measured activity by half. A high value points to a need for much substance. For the compound `O=C1c2ccccc2[Se](=O)N1c1ccccc1` (stereo not shown) [EB1, Ebselen oxide], in [1], the “inhibition of FERM/ErbB2 interaction” value is 43%. Also, the “ErbB2 V842I activation (in words)” value at V842I ErbB2 is recorded as “potently decrease”. Moreover, in the data set with MCF7, the “effect on MCF7 proliferation (in words)” value is “without any effect”. Moreover, in the data set on SKBR3 [2], the “anchorage-independent growth of SKBR3 (in words)” value is “inhibited the anchorage-independent growth”. Besides, the “ErbB2 activation in N87 cell line (in words)” value at ErbB2 is given as “potently decrease ErbB2 activation”. On V777L ErbB2, the “ErbB2 V777L activation (in words)” value was “potently decrease”. Further, the IC50 in the data set on BT474 (Homo sapiens, BT-474) is 5.5 µM; in the data set on SKBR3 [3] (Homo sapiens, SK-BR-3), 7.5 µM. Besides, the EC50 amounted to 5.5 µM in the data set with BT474 (Homo sapiens, BT-474, 72 h, day 3, read-out: Cell proliferation at d 3 BT474 EC50); 7.4 µM in the data set with SKBR3 [3] (Homo sapiens, SK-BR-3, 72 h, day 3, read-out: Cell proliferation at d 3 SKBR3 EC50); 99.2 µM with HBMEC (Homo sapiens, 72 h, read-out: Cell proliferation at d 3 HBMEC EC50, μM). Besides, the “Cell proliferation at d 3 BT474 Max inhibition, %” value with BT474 (day 3) was found to be 100%. The “Cell proliferation at d 3 SKBR3 Max inhibition, %” value with SKBR3 [3] (day 3) is on record as 96.7%. In addition, the “effect on HBMEC proliferation (in words)” value in the data set on HBMEC (10 μM) was “without any effect”. The “effect on proliferation of non-transfected HBMECs cells (in words)” value in the data set with HBMEC (10 μM, day 3) is given as “no effect”. Also, the “Cell proliferation at d 3 HBMEC Max inhibition, %” value with HBMEC (day 3) is 94.4%.

Values taken from patent US10766873B2, “Zuclopenthixol hydrochloride derivatives and Ebselen derivatives as ErbB2 inhibitors” (Centre National de la Recherche Scientifique (CNRS), priority 2016, dated 2020).
